Measured values as given in US20100240654A1, “HYDRAZIDE DERIVATIVES” (priority 2004, published 2010).

Assays:
[1] = target: T1, human clotting factor VIIa (Homo sapiens, UniProt P08709); experiment: Inhibitory activity against clotting factor VIIa (chromogenic substrate Spectrozyme FVIIa, with tissue factor); assay type: biochemical; settings: 10 nmol/L TF, 5 nmol/L Factor VIIa, room temperature 40 minutes, 405 nm
T1 construct: a human clotting factor VIIa (Factor VIIa) purified sample; purchased Enzyme Research Laboratories (Factor VIIa); Calbiochem (tissue factor) HFVIIa (Factor VIIa); 612151 (tissue factor)
Method: Dimethylsulfoxide (DMSO) solutions were prepared with compounds of the invention at concentration of 10 mmol/L (10 mmol/L compound solutions).
One packet of tris-hydroxymethylaminomethane-preset (Tris Preset) (product of SIGMA Corp., Catalog No. T8293), 8.8 g of sodium chloride (NaCl) and 1 g of bovine serum albumin (BSA) were dissolved in 1 L of water to prepare a Tris-BSA buffer (100 mmol/L Tris, 0.15 mol/L NaCl, 0.1% BSA, pH 7.4).
The Tris-BSA buffer (180 μL) was added to the aforementioned 10 mmol/L compound solution (20 μL). A 10-fold dilution series was prepared for this mixture using the aforementioned Tris-BSA buffer, and solutions with the compound at concentrations of 1.0 mmol/L, 100, 10, 1, 0.1, 0.01 and 0.001 μmol/L were prepared (1.0 mmol-0.001 μmol/L compound solutions).
As a control, a solution was prepared by 10-fold dilution of DMSO with the Tris-BSA buffer (control 10% solution).
After dissolving one packet of Tris preset, NaCl (8.8 g) and BSA (1 g) in water (about 900 mL), there were added 1 mol/L aqueous calcium chloride (CaCl2) (15 mL) and 1 mg/mL aqueous cephalin (30 mL), and the total volume was brought to 1 L by adding water. To this solution was added a human tissue factor (TF) sample (product of Calbiochem, Catalog No. 612151) (450 μg) to a TF sample concentration of 10 nmol/L, and then a human clotting factor VIIa (Factor VIIa) purified sample (product of Enzyme Research Laboratories, Catalog No. HFVIIa) (250 μg) was added to a Factor VIIa purified sample concentration of 5 nmol/L, to prepare an enzyme solution (100 mmol/L Tris-HCl, 0.15 mol/L NaCl, 15 mmol/L CaCl2, 30 μg/mL cephalin, 1 mg/mL BSA, 10 nmol/L TF, 5 nmol/L Factor VIIa).
To 110 μL of this enzyme solution was added 15 μL of each of the 1.0 mmol-0.001 μmol/L compound solutions, and then 25 μL of a 1.0 mmol/L synthetic chromogenic substrate solution (Spectrozyme FVIIa) was added and the mixture was allowed to stand at room temperature for 40 minutes. Next, the amount of 4-nitroanilide released into the solution was quantitated by spectrophotometry (405 nm).
A control measurement was conducted in the same manner, using the control 10% solution instead of the compound solution.
This measurement yielded the enzyme reaction inhibition in the presence of 100 μmol/L to 0.1 nmol/L of each compound of the invention. The enzyme reaction inhibition at each compound concentration was subjected to non-linear regression analysis, and the IC50 value for inhibitory activity of each compound against clotting factor VIIa was calculated.

[2] = tested on: healthy human plasma; experiment: Blood clotting time prolongation (prothrombin time, steel ball method); settings: human thromboplastin, 37° C.

T1 sequence (P08709 213-466 limits assumed): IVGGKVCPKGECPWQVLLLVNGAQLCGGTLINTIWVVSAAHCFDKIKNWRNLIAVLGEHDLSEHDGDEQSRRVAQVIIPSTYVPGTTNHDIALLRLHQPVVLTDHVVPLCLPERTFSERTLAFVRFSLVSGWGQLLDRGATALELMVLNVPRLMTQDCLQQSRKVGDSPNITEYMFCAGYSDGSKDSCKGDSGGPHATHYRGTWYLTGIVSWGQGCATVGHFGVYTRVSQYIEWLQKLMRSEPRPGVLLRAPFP
T1 sequence (P08709 61-212 limits assumed): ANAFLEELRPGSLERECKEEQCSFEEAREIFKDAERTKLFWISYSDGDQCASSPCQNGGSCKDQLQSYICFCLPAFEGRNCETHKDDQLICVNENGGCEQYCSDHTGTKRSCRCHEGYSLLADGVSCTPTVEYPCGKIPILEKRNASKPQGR
T1 sequence (P13726 33-295 partner): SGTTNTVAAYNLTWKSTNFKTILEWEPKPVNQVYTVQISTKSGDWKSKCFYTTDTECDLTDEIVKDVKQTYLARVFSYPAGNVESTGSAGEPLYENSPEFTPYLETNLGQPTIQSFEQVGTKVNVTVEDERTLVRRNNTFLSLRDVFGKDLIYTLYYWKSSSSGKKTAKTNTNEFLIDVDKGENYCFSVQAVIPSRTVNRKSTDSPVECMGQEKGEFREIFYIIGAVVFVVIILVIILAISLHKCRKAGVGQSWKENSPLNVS

SMILES | IC50 [1] | h PT × 1.1: compound concentration which produced 10% prolongation compared to the control clotting time [2]
CCOc1cc(C(Nc2ccc(C(=N)N)cc2)C(=O)NNC(=O)c2ccncc2F)ccc1OCC(C)(C)N.O=C(O)C(F)(F)F (stereo not shown) [Example X-248, 4-[1-[4-(2-Amino-2-methylpropoxy)-3-ethoxyphenyl]-2-[N′-(3-fluoropyridine-4-carbonyl)-hydrazino]-2-oxoethylamino]benzamidine trifluoroacetate] | 173 nM | 0.83 µM
CCOc1cc(C(Nc2ccc(C(=N)N)cc2)C(=O)NNC(=O)c2ccccc2Cl)ccc1OC(C)CN(C)C.O=C(O)C(F)(F)F (stereo not shown) [Example X-252, 4-(2-(N′-(2-Chlorobenzoyl)hydrazino)-1-(4-(2-dimethylamino-1-methylethoxy)-3-ethoxyphenyl)-2-oxoethylamino)benzamidine trifluoroacetate] | 98 nM | 0.76 µM
CCOc1cc(C(Nc2ccc(C(=N)N)cc2)C(=O)NNC(=O)c2ccncc2F)ccc1OC(C)CN(C)C.O=C(O)C(F)(F)F (stereo not shown) [Example X-254, 4-(1-(4-(2-Dimethylamino-1-methylethoxy)-3-ethoxyphenyl)-2-(N′-(3-fluoropyridine-4-carbonyl)hydrazino)-2-oxoethylamino)benzamidine trifluoroacetate] | 50 nM | 0.59 µM

The next lines start with results.

IC50 [1] | SMILES | h PT × 1.1: compound concentration which produced 10% prolongation compared to the control clotting time [2]
165 nM | CCOc1cc(C(Nc2ccc(C(=N)N)cc2)C(=O)NNc2ccccc2C(=O)O)ccc1OCC(=O)N(C)C.O=C(O)C(F)(F)F (stereo not shown) [Example X-246, 2-[N′-[2-(4-Carbamimidoylphenylamino)-2-(4-dimethylcarbamoylmethoxy-3-ethoxyphenyl)acetyl]hydrazino]benzoic acid trifluoroacetate] | 0.90 µM
166 nM | CCOc1cc(C(Nc2ccc(C(=N)N)cc2)C(=O)NNc2ccccc2C(=O)O)ccc1OC(C)CN(C)C.O=C(O)C(F)(F)F (stereo not shown) [Example X-251, 2-(N′-(2-(4-Carbamimidoylphenylamino)-2-(4-(2-dimethylamino-1-methylethoxy)-3-ethoxyphenyl)acetyl)hydrazino)benzoic acid trifluoroacetate] | 0.68 µM
